Values quoted from earlier work as cited in paper PMC12415690 (RSC Advances, 2025).
Converted amounts (≈) assume the structure as drawn. Read-outs that look alike come from different tables or passages of the source.

Key:
M.tb H37Rv = conditions: H37Rv strain; cited from earlier work
[1] = system: dormant M. tuberculosis H37Ra; conditions: cited from earlier work
[2] = system: Mycobacterium tuberculosis; conditions: cited from earlier work

CCOC(=O)c1nc(-c2ccc(C#N)cc2)sc1C1CCCCC1 [ethyl 2-(4-cyanophenyl)-5-cyclohexylthiazole-4-carboxylate]
MIC (M.tb H37Rv): 2.1 µg/mL (≈ 6.17 µM)
inhibition against dormant M. tuberculosis H37Ra [1]: 91%

O=[N+]([O-])c1ccc(-c2csc(N/N=C/C=C(\Cl)c3ccc(Cl)cc3)n2)cc1 [2-((E)-2-((Z)-3-chloro-3-(4-chlorophenyl)allylidene)hydrazinyl)-4-(4-nitrophenyl)thiazole]
MIC ([2]; (E)-2-(2-allylidenehydrazinyl)thiazole derivatives): 6.5 µg/mL

Cc1csc(C(C)(O)c2nnc(Nc3cccc(Br)n3)s2)n1 (stereo not shown) [1-(5-((6-bromopyridin-2-yl)amino)-1,3,4-thiadiazol-2-yl)-1-(4-methylthiazol-2-yl)ethanol]
MIC ([2]; thiazole-thiadiazole hybrids): 1 µM
